Laboratory results reported in patent EP1997826A2, “Synthetic ligands for immunoglobulins and pharmaceutical compositions containing them” (Tecnogen S.p.A., priority 2007, dated 2008).

Key:
[1] = system: immunoglobulins (IgG, IgM, IgA and IgE); assay: affinity chromatography of raw human serum on peptide immobilized on CH-Sepharose-4B; assay type: binding; conditions: Western Blot, albumin not retained
Description: The peptide of formula (IB) prepared in Example 1 (10 mg) was dissolved in 5 ml of aqueous solution of sodium bicarbonate 0.1 M, NaCl 0.5 M, pH 8.5 and then added to 0.5 g of activated resin CH-Sepharose-4B (Amersham Biosciences, Uppsala, Sweden, Cat. No. 17-0490-01), a preactivated support for affinity chromatography for the direct coupling of peptides and proteins. The suspension was stirred for 24 hours and the extent of coupling was monitored by taking samples of the reaction mixture, at various times, followed by analysis by RP-HPLC.
Approximately 90-95% of the initial peptide is found to be bound covalently to the resin after 24 hours. The derivatized resin is incubated with 0.1 M Tris, pH 8.5 to block any sites of the resin that are still reactive, and is then packed in a glass column 100 x 0.6 cm I.D. with a variable piston (OMNIFIT, Cat. No. 006CC-06-10-FF).
For the purification of immunoglobulins from serum, the column was equilibrated with a buffer 50 mM Bis-Tris (Sigma, Cat. No. B9754), pH 6.5, to a flow of 1 ml/min, monitoring the eluent at 280 nm. Raw rabbit serum (Sigma, Cat, No. R9133) was loaded in the column and, after elution of the material that was not bound, the eluent was changed to acetic acid 0.1 M, pH 3.0, for elution of the adsorbed material. […]

[2] = system: female mice of the Balb/c strain; assay type: in vivo, mouse
Description: Active cutaneous anaphylaxis on the mouse ear was induced according to the procedure described by Inagaki et al., Japan. J. Pharmacol. 1992, 59:201-208. Female mice of the Balb/c strain were immunized with the ovalbumin antigen in the presence of the adjuvant aluminium hydroxide gel (alum). The immunizations were carried out by intraperitoneal administration of 25 µg of ovalbumin and 1 mg of alum dissolved in 200 µl of PBS. A control group received intraperitoneal injections that only contained 1 mg of alum dissolved in 200 µl of PBS. […] After 30 minutes, the appearance, on the mouse ear, of stained areas in the dermis, with extent and intensity of staining proportional to the quantity of allergen injected, was observed. […] The sample was then stirred and filtered, and finally the amount of dye was determined with a spectrophotometer, taking readings at 620 nm. […] Extraction and quantification of the Evans Blue dye, discharged in the local inflammatory reaction, were carried out as described previously.

Substance: (H-L-Cys(p-MeOBzl)-D-Arg-D-Thr-D-Tyr)4-L-Lys2-L-Lys-L-Lys-OH [Peptide IB]
- retention of immunoglobulins by the peptide column [1]: able to retain the immunoglobulins (IgG, IgM, IgA and IgE)
- Inhibition of skin reaction (%) ([2]; Dose of Peptide 100 mg/kg intraperitoneally, 30 minutes before ovalbumin): 100%
- activity greater than the activity of the comparative peptide ([2]; mouse ear active cutaneous anaphylaxis): approx. 15 times
